Experimental findings from ChEMBL document CHEMBL5608176, “Binding sites and design strategies for small molecule GLP-1R agonists” (Eur J Med Chem, 2024) are described below.

Assay [1] addresses Voltage-gated inwardly rectifying potassium channel KCNH2 (Homo sapiens, UniProt Q12809). Briefly: Inhibition of hERG potassium channel by patch clamp assay. Type of assay: toxicity. (The hERG channel carries a current that helps repolarise heart muscle cells.)
The target of assay [2] is Glucagon-like peptide 1 receptor (Homo sapiens, UniProt P43220). In words: Agonist activity at human GLP-1 expressed in HEK293 cells assessed as […] in intracellular cAMP accumulation incubated for 60 mins by HTRF assay. Format: functional, cell-based. For orientation: Cyclic AMP is a second messenger, typically raised through Gs and lowered through Gi signalling.

Molecules are shown by their SMILES.

Chain of Glucagon-like peptide 1 receptor (P43220 whole entry): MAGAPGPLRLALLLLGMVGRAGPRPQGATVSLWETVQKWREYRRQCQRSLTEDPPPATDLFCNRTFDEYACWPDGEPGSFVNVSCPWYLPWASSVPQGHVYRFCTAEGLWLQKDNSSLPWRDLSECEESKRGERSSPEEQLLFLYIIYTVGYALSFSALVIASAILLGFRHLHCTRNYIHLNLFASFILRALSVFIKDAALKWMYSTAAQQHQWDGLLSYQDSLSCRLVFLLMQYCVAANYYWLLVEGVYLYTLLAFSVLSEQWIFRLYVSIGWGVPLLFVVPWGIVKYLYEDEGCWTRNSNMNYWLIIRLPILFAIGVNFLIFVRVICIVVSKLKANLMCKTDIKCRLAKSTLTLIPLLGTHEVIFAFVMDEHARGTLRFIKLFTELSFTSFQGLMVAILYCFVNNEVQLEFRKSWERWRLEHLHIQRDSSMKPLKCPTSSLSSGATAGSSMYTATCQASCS
Chain of Voltage-gated inwardly rectifying potassium channel KCNH2 (Q12809 whole entry): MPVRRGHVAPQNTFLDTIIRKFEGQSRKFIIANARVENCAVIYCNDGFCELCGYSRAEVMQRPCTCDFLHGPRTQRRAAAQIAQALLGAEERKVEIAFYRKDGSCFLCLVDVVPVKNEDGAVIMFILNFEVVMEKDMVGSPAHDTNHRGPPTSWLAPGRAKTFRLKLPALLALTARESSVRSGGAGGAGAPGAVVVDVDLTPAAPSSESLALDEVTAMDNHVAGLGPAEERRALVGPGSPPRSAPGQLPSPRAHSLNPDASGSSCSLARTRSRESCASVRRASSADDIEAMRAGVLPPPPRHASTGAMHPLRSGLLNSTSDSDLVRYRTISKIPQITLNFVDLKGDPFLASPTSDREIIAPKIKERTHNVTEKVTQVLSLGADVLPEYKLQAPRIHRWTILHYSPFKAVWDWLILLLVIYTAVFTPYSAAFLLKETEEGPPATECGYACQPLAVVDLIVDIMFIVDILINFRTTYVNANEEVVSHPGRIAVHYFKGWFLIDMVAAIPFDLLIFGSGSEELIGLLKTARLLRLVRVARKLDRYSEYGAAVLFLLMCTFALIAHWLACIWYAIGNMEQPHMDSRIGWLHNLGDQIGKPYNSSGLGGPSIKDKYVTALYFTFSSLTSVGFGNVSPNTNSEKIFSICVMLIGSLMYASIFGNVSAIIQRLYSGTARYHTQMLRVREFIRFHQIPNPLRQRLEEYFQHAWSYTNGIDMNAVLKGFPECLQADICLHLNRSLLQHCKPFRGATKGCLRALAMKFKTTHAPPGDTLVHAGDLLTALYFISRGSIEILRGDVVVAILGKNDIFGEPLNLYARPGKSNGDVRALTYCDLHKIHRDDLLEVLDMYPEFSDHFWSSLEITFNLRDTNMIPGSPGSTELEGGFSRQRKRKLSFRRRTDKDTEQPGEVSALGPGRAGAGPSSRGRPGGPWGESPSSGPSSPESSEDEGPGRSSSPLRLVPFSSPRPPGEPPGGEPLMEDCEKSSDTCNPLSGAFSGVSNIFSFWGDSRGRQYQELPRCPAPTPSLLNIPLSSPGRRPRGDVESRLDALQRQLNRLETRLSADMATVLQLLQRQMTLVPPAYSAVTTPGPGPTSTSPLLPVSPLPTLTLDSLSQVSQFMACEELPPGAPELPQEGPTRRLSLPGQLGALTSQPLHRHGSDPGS

On to `Cn1c(CN2CCC(c3cccc(OCc4ccc(Cl)cc4F)n3)CC2)nc2ccncc21`, for which the EC50 in assay [1] was found to be 77 nM.

As to `COc1nccc(-c2ccc3c(c2)cc(C(=O)N2CCc4nn(-c5cc(C)c(F)c(C)c5)c(-n5ccn(-c6ccc7c(cnn7C)c6F)c5=O)c4[C@@H]2C)n3[C@@]2(c3noc(=O)[nH]3)C[C@@H]2C)c1C`, the EC50 in assay [2] was 2.7 nM.

With `COCCn1ncc2c(F)c(-n3ccn(-c4c5c(nn4-c4cc(C)c(F)c(C)c4)CCN(C(=O)c4cc6cc([C@H]7CCOC(C)(C)C7)ccc6n4[C@@]4(c6noc(=O)[nH]6)C[C@@H]4C)[C@H]5C)c3=O)ccc21`, the EC50 in assay [2] came to 2.1 nM.

What is called EC50 is the concentration giving half of the maximal effect.
